Patent US11987586B1 (TAKEDA PHARMACEUTICAL COMPANY LIMITED, priority 2022, dated 2024)

Biological target: T1, human OX2 receptor (Homo sapiens, UniProt O43614)
T1 construct: expressed in transfected cells
T1 sequence (O43614 1-444): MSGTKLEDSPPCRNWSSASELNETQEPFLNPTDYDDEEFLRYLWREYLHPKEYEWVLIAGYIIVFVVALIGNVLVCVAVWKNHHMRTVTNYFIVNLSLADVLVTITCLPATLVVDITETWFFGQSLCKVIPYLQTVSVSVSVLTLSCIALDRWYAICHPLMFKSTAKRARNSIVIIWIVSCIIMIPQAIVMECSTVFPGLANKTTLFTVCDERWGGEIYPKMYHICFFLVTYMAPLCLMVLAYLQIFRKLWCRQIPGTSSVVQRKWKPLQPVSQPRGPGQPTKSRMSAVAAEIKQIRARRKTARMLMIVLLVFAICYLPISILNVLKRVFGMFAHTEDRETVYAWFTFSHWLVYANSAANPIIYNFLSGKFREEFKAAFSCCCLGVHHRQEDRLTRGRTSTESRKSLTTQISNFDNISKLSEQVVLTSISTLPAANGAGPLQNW
Test: Measurement of orexin type 2 receptor agonist activity (calcium fluorescence, Fluo-4, FDSS)
Assay type: cell-based
Settings: 3 uM test compound; CHO cells expressing human OX2 receptor; DMSO = 0%, 10 nM orexin A (human) = 100%
Experimental: In order to obtain cell clones that stably express human orexin type 2 receptor, human orexin type 2 (residues 1-444, NCBI Reference Sequence: AK314279) was constructed in a pcDNA3.1 (+) vector (Invitrogen) to express in mammalian cells. This plasmid DNA was transfected into CHO-K1 cells by electroporation, and stable clones were obtained by limiting dilution using resistance to G418 as a selection marker.
CHO cells in which human OX2 receptor was forcibly expressed were seeded at 10,000 cells/well into a 384-well black transparent bottom plate (BD falcon), and were incubated at 37° C., 5% CO2 for 1 day after incubation at room temperature for 30 minutes. After removing the cell plate medium, assay buffer containing calcium indicator A (HBSS (Thermo Fisher Scientific), 20 mM HEPES (Thermo Fisher Scientific), 0.1% BSA (Sigma-Aldrich), 2.5 μg/mL Fluo-4 AM (Dojin Kagaku), 0.08% Pluronic F127 (Dojin Kagaku), 1.25 mM probenecid (Dojin Kagaku)) was added at 30 μL/well. After incubation in a 5% CO2 incubator at 37° C. for 30 minutes, it was incubated at room temperature for another 30 minutes. Add 10 μL/well of the test compound diluted with assay buffer B (HBSS, 20 mM HEPES, 0.1% BSA), and use FDSS μCELL (Hamamatsu Photonics) to measure the fluorescence value every 1 second for 1 minute, and then every 2 seconds for 1 minute. It was measured for 1 minute and 40 seconds. The amount of fluorescence value when DMSO is added instead of the test compound is defined as 0%, and the amount of fluorescence value when orexin A (human) (Peptide Institute) with a final concentration of 10 nM is added is defined as 100%. The activity (%) of the test compound was calculated.

| Structure (SMILES) | OX2R agonist activity (3 uM, %) [%] |
| --- | --- |
| CCS(=O)(=O)N[C@@H]1CN2C(=O)N(c3noc4cccc(-c5c(F)cccc5F)c34)C[C@@H]2[C@@H]1F (relative stereo) [Example 4, rel-N-{(6R,7S,7aR)-2-[4-(2,6-difluorophenyl)-1,2-benzoxazol-3-yl]-7-fluoro-3-oxohexahydro-1H-pyrrolo[1,2-c]imidazol-6-yl}ethanesulfonamide] | 105 |
| CS(=O)(=O)N[C@@H]1CC[C@H]2CN(c3noc4cccc(-c5c(F)cccc5F)c34)C(=O)N2C1 (relative stereo) [Example 63, rel-N-{(6R, 8aS)-2-[4-(2,6-difluorophenyl)-1,2-benzoxazol-3-yl]-3-oxooctahydroimidazo[1,5-a]pyridin-6-yl}methanesulfonamide] | 107 |
| CCS(=O)(=O)N[C@H]1Cn2c(cn(-c3noc4cccc(-c5c(F)cccc5F)c34)c2=O)[C@H]1C (relative stereo) [Example 109, rel-N-{(6R,7S)-2-[4-(2,6-difluorophenyl)-1,2-benzoxazol-3-yl]-7-methyl-3-oxo-2,5,6,7-tetrahydro-3H-pyrrolo[1,2-c]imidazol-6-yl}ethanesulfonamide] | 103 |
| CS(=O)(=O)N[C@@H]1CN2C(=O)N(c3noc4cccc(-c5c(F)cc(F)cc5F)c34)C(O)[C@@H]2C1(F)F (relative stereo) [Example 125, N-{(1R*,6R,7aR)-7,7-difluoro-1-hydroxy-3-oxo-2-[4-(2,4,6-trifluorophenyl)-1,2-benzoxazol-3-yl]hexahydro-1H-pyrrolo[1,2-c]imidazol-6-yl}methanesulfonamide] | 103 |
| CCS(=O)(=O)N[C@@H]1Cn2c(cn(-c3noc4cccc(-c5c(F)cccc5F)c34)c2=O)[C@@H]1F (relative stereo) [Example 129, rel-N-{(6R, 7R)-2-[4-(2,6-difluorophenyl)-1,2-benzoxazol-3-yl]-7-fluoro-3-oxo-2,5,6,7-tetrahydro-3H-pyrrolo[1,2-c]imidazol-6-yl}ethanesulfonamide] | 103 |
| CCS(=O)(=O)N[C@H]1Cn2c(cn(-c3noc4cccc(-c5c(F)cccc5F)c34)c2=O)[C@@H]1C (relative stereo) [Example 131, rel-N-{(6R, 7R)-2-[4-(2,6-difluorophenyl)-1,2-benzoxazol-3-yl]-7-methyl-3-oxo-2,5,6,7-tetrahydro-3H-pyrrolo[1,2-c]imidazol-6-yl}ethanesulfonamide] | 96 |
| CCS(=O)(=O)NC1Cn2c(cn(-c3noc4cccc(-c5c(F)cccc5F)c34)c2=O)C1(F)F (single isomer, unassigned) [Example 5, N-{(6R*)-2-[4-(2,6-difluorophenyl)-1,2-benzoxazol-3-yl]-7,7-difluoro-3-oxo-2,5,6,7-tetrahydro-3H-pyrrolo[1,2-c]imidazol-6-yl}ethanesulfonamide] | 106 |
| CS(=O)(=O)NC1Cn2c(cn(-c3noc4cccc(-c5c(F)cccc5F)c34)c2=O)CC1(F)F (single isomer, unassigned) [Example 117, N-{(6R*)-2-[4-(2,6-difluorophenyl)-1,2-benzoxazol-3-yl]-7,7-difluoro-3-oxo-2,3,5,6,7,8-hexahydroimidazo[1,5-a]pyridin-6-yl}methanesulfonamide] | 97 |
| CCS(=O)(=O)NC1Cn2c(cn(-c3noc4cccc(-c5c(F)cccc5F)c34)c2=O)CC1(F)F (single isomer, unassigned) [Example 181, N-{(6R*)-2-[4-(2,6-difluorophenyl)-1,2-benzoxazol-3-yl]-7,7-difluoro-3-oxo-2,3,5,6,7,8-hexahydroimidazo[1,5-a]pyridin-6-yl}ethanesulfonamide] | 105 |
| CS(=O)(=O)NC1Cn2c(cn(-c3noc4cc(F)cc(-c5c(F)cc(F)cc5F)c34)c2=O)CC1(F)F (single isomer, unassigned) [Example 214, N-{(6R*)-7,7-difluoro-2-[6-fluoro-4-(2,4,6-trifluorophenyl)-1,2-benzoxazol-3-yl]-3-oxo-2,3,5,6,7,8-hexahydroimidazo[1,5-a]pyridin-6-yl}methanesulfonamide] | 106 |

Now from value to molecule:

| OX2R agonist activity (3 uM, %) [%] | Structure (SMILES) |
| --- | --- |
| 101 | CS(=O)(=O)N[C@@H]1CN2C(=O)N(c3noc4cccc(-c5c(F)cccc5F)c34)C[C@H]2CC1(F)F (relative stereo) [Example 216, rel-N-{(6R,8aR)-2-[4-(2,6-difluorophenyl)-1,2-benzoxazol-3-yl]-7,7-difluoro-3-oxooctahydroimidazo[1,5-a]pyridin-6-yl}methanesulfonamide] |
| 79 | CS(=O)(=O)N[C@@H]1C[C@H]2CN(c3noc4cccc(-c5c(F)cccc5F)c34)C(=O)[C@H]2C1 (relative stereo) [Example 337, rel-N-{(3aR,5R,6aS)-2-[4-(2,6-difluorophenyl)-1,2-benzoxazol-3-yl]-1-oxooctahydrocyclopenta[c]pyrrol-5-yl}methanesulfonamide] |
| 100 | CS(=O)(=O)N[C@H]1C[C@H]2CN(c3noc4cccc(-c5c(F)cccc5F)c34)C(=O)[C@H]2C1 (relative stereo) [Example 338, rel-N-{(3aR,5S,6aS)-2-[4-(2,6-difluorophenyl)-1,2-benzoxazol-3-yl]-1-oxooctahydrocyclopenta[c]pyrrol-5-yl}methanesulfonamide] |
| 103 | CS(=O)(=O)NC1Cn2c(cn(-c3noc4ccc(F)c(-c5c(F)cc(F)cc5F)c34)c2=O)CC1(F)F (single isomer, unassigned) [Example 231, N-{(6R*)-7,7-difluoro-2-[5-fluoro-4-(2,4,6-trifluorophenyl)-1,2-benzoxazol-3-yl]-3-oxo-2,3,5,6,7,8-hexahydroimidazo[1,5-a]pyridin-6-yl}methanesulfonamide] |
| 106 | CCS(=O)(=O)NC1Cn2c(cn(-c3noc4cc(F)cc(-c5c(F)cc(F)cc5F)c34)c2=O)CC1(F)F (single isomer, unassigned) [Example 240, N-{(6R*)-7,7-difluoro-2-[6-fluoro-4-(2,4,6-trifluorophenyl)-1,2-benzoxazol-3-yl]-3-oxo-2,3,5,6,7,8-hexahydroimidazo[1,5-a]pyridin-6-yl}ethanesulfonamide] |
| 108 | Cc1cc(-c2c(F)cc(F)cc2F)c2c(-n3cc4n(c3=O)CC(NS(C)(=O)=O)C(F)(F)C4)noc2n1 (single isomer, unassigned) [Example 245, N-{(6R*)-7,7-difluoro-2-[6-methyl-4-(2,4,6-trifluorophenyl)[1,2]oxazolo[5,4-b]pyridin-3-yl]-3-oxo-2,3,5,6,7,8-hexahydroimidazo[1,5-a]pyridin-6-yl}methanesulfonamide] |
| 107 | CCS(=O)(=O)NC1Cn2c(cn(-c3noc4ccc(F)c(-c5c(F)cc(F)cc5F)c34)c2=O)CC1(F)F (single isomer, unassigned) [Example 246, N-{(6R*)-7,7-difluoro-2-[5-fluoro-4-(2,4,6-trifluorophenyl)-1,2-benzoxazol-3-yl]-3-oxo-2,3,5,6,7,8-hexahydroimidazo[1,5-a]pyridin-6-yl}ethanesulfonamide] |
| 97 | Cc1cc2onc(-n3cc4n(c3=O)CC(NS(C)(=O)=O)C(F)(F)C4)c2c(-c2c(F)cc(F)cc2F)n1 (single isomer, unassigned) [Example 289, N-{(6R*)-7,7-difluoro-2-[6-methyl-4-(2,4,6-trifluorophenyl)[1,2]oxazolo[4,5-c]pyridin-3-yl]-3-oxo-2,3,5,6,7,8-hexahydroimidazo[1,5-a]pyridin-6-yl}methanesulfonamide] |
| 98 | CCS(=O)(=O)NC1Cn2c(C)c(-c3noc4cccc(-c5c(F)cccc5F)c34)c(=O)n2C1 (single isomer, unassigned) [Example 336, N-{(2R*)-6-[4-(2,6-difluorophenyl)-1,2-benzoxazol-3-yl]-7-methyl-5-oxo-2,3-dihydro-1H,5H-pyrazolo[1,2-a]pyrazol-2-yl}ethanesulfonamide] |
| 96 | CCS(=O)(=O)NC1Cn2cc(-c3noc4cccc(-c5c(F)cccc5F)c34)c(=O)n2C1 (single isomer, unassigned) [Example 339, N-{(2R*)-6-[4-(2,6-difluorophenyl)-1,2-benzoxazol-3-yl]-5-oxo-2,3-dihydro-1H,5H-pyrazolo[1,2-a]pyrazol-2-yl}ethanesulfonamide] |
